Where two headings read alike, the source gives them in different places.
Assays:
MCF-7 cells = assay: iCELLigence real-time cell analysis; assay type: cell-based, human; settings: for viability at 2 µM / viability at 5 µM / viability at 10 µM / viability at 20 µM / viability at 50 µM / viability at 100 µM / IC50: MCF-7; for viability at 2 µM / viability at 5 µM / viability at 10 µM / viability at 20 µM / viability at 50 µM / viability at 100 µM: relative to control, read-out: cell viability (% ± SEM)
Protocol: (§1) Therefore, compound 6j was applied in serial doses (2, 5, 10, 20, 50, and 100 μM) to MCF-7 cells and parallel to MCF-12A cells to determine the selectivity and safety. The treatments were performed 24 h after seeding the cells on system-specific biosensor-based plates. A total of 120 h of analyses were monitored, with cell viability measurements taken every 15 min. […] In addition, the viability percentage values for each dose in these periods were calculated and are summarized in Table 3 for MCF-7 and Table 4 for MCF-12A. […] In these treatments, cells were not killed dramatically after adding the highest two doses of 6j (100 and 50 μM); instead, they entered the stationary phase.
(§2) MCF-7 (Cat. no. HTB-22) (human estrogen receptor-positive breast cancer) and MCF-12A (Cat. no. CRL-10782) (human non-tumorigenic mammary epithelial) cell lines were obtained from the American Type Culture Collection (ATCC, Rockville, Maryland, USA). MCF-7 cells were maintained in Dulbecco’s modified Eagle’s medium (DMEM) (Biological Industries, Haemek, Israel) supplemented with 10% heat-inactivated fetal bovine serum (FBS) (Biowest, Nuaillé, France), 2 mM L-glutamine (Biological Industries, Haemek, Israel), 100 U/mL penicillin and 100 μg/mL streptomycin (Gibco, Waltham, MA, USA), and 2.5 μg/mL plasmocin (Invivogen, Toulouse, France) at 37 °C in a 5% CO2 humidified incubator. MCF-12A cells were cultured in a DMEM/F-12 Nutrient Mixture (Ham) (DMEM/F12 1:1 with HEPES and L-glutamine) (Gibco, Waltham, MA, USA) with 10% heat-inactivated FBS, 100 U/mL penicillin, 100 μg/mL streptomycin, and 10 μg/mL insulin (Humulin R, Lilly, Indianapolis, USA), 20 ng/mL epidermal growth factor (Abcam, Cambridge, UK), […] hydrocortisone (Dekort, Deva Ilac, Istanbul, Turkey), and 2.5 μg/mL plasmocin in a humidified atmosphere of 5% CO2 at 37 °C. The cells were routinely cultured in cell culture flasks and checked regularly under an inverted microscope. Cells reaching 80% confluency were passaged by treatment with 0.25% trypsin–EDTA. Total cell numbers were counted by the trypan blue dye exclusion method using a hemocytometer prior to the experiments.
(§3) The iCELLigence real-time cell analysis system was used to conduct a real-time and label-free examination of the activities of compound 6j on cells as we previously described.[62] In brief, following a background measurement with 200 μL of complete medium on iCELLigence E-plate L8, 100 μL of MCF-7 or MCF-12A cells was seeded at a density of 5.0 × 10^3 per well. During the 120 h monitoring, the system took impedance measurements via biosensors every 15 min. At the 24th h of incubation, the cells were treated with increasing concentrations of the 6j compound (2, 5, 10, 20, 50, and 100 μM) in duplicate. For cell culture experiments, compound 6j was dissolved in DMSO (Sigma, St. Louis, USA) at a stock concentration of 20 mM. For treatments, dilutions were prepared from 20 mM stock with a cell growth medium, with a final DMSO concentration of 0.1%. The medium containing 0.1% DMSO was also used as a negative control. […] Data were recorded by the iCELLigence software for 120 h and analyzed at the end of the study.

[1] = iCELLigence real-time cell analysis; assay type: cell-based, human; settings: human, MCF-12A, relative to control, read-out: cell viability (% ± SEM)
Protocol: as §1, §2, §3

With COc1cc(C=C2C(=O)Nc3ccc(Cl)cc32)ccc1OCc1ccccn1 (mixture of isomers) [6j] the “inhibition of MCF-7 viability” value (MCF-7 cells; 20 μM, compared with same concentration of tamoxifen) was 30%, the “growth of MCF-7 cells” value (MCF-7 cells; 100 and 50 μM, all time points) was “completely inhibited the growth” and the inhibition at 10 µM (MCF-7 cells; Homo sapiens, MCF7, 10 μM, from growth curves) was 25%. For the same molecule, the inhibition at 20 µM (MCF-7 cells; Homo sapiens, MCF7, 20 μM, all time points, from growth curves) was ~50%, the viability at 2 µM (MCF-7 cells; Homo sapiens, MCF7, 24 h) was 91.38 ± 0.01% and the viability at 2 µM (MCF-7 cells; Homo sapiens, MCF7, 48 h) was 91.38 ± 0.01%. For the same molecule, the viability at 2 µM (MCF-7 cells; Homo sapiens, MCF7, 72 h) was 91.38 ± 0.01%, the viability at 2 µM (MCF-7 cells; Homo sapiens, MCF7, 96 h) was 90.67 ± 0.01% and the viability at 5 µM (MCF-7 cells; Homo sapiens, MCF7, 24 h) was 84.83 ± 0.01%. It also gave a viability at 5 µM (MCF-7 cells; Homo sapiens, MCF7, 48 h) of 83.01 ± 0.02%, a viability at 5 µM (MCF-7 cells; Homo sapiens, MCF7, 72 h) of 83.01 ± 0.02% and a viability at 5 µM (MCF-7 cells; Homo sapiens, MCF7, 96 h) of 82.54 ± 0.01%. For the same molecule, the viability at 10 µM (MCF-7 cells; Homo sapiens, MCF7, 10 μM, 24 h) was 80 ± 0.01%, the viability at 10 µM (MCF-7 cells; Homo sapiens, MCF7, 10 μM, 48 h) was 76.59 ± 0.01% and the viability at 10 µM (MCF-7 cells; Homo sapiens, MCF7, 10 μM, 72 h) was 76.59 ± 0.01%. It also gave a viability at 10 µM (MCF-7 cells; Homo sapiens, MCF7, 10 μM, 96 h) of 74.2%, a viability at 20 µM (MCF-7 cells; Homo sapiens, MCF7, 20 μM, 24 h) of 70.25 ± 0.02% and a viability at 20 µM (MCF-7 cells; Homo sapiens, MCF7, 20 μM, 48 h) of 64.29 ± 0.02%. The viability at 20 µM (MCF-7 cells; Homo sapiens, MCF7, 20 μM, 72 h) was 51.2 ± 0.01%, the viability at 20 µM (MCF-7 cells; Homo sapiens, MCF7, 20 μM, 96 h) was 40.5% and the viability at 50 µM (MCF-7 cells; Homo sapiens, MCF7, 24 h) was 62.7%. It also gave a viability at 50 µM (MCF-7 cells; Homo sapiens, MCF7, 48 h) of 43.4%, a viability at 50 µM (MCF-7 cells; Homo sapiens, MCF7, 72 h) of 28% and a viability at 50 µM (MCF-7 cells; Homo sapiens, MCF7, 96 h) of 18.4%. The viability at 100 µM (MCF-7 cells; Homo sapiens, MCF7, 24 h) was 57.46 ± 0.02%, the viability at 100 µM (MCF-7 cells; Homo sapiens, MCF7, 48 h) was 33.25 ± 0.02% and the viability at 100 µM (MCF-7 cells; Homo sapiens, MCF7, 72 h) was 20.25 ± 0.01%. The viability at 100 µM (MCF-7 cells; Homo sapiens, MCF7, 96 h) was 13.4%, the IC50 (MCF-7 cells; Homo sapiens, MCF7, 24 h after treatment) was 121 µM and the IC50 (MCF-7 cells; Homo sapiens, MCF7, 48 h after treatment) was 16.2 µM. For the same molecule, the IC50 (MCF-7 cells; Homo sapiens, MCF7, 72 h after treatment) was 17 µM, the IC50 (MCF-7 cells; Homo sapiens, MCF7, 96 h after treatment) was 16.1 µM and the viability at 48 h, 2 µM ([1]; MCF-12A cells (non-tumorigenic mammary epithelial), 2 μM, 48 h) was 97.43 ± 0.02%. It also gave a viability at 72 h, 2 µM ([1]; MCF-12A cells (non-tumorigenic mammary epithelial), 2 μM, 72 h) of 97.43 ± 0.02%, a viability at 96 h, 2 µM ([1]; MCF-12A cells (non-tumorigenic mammary epithelial), 2 μM, 96 h) of 97.43 ± 0.02% and a viability at 72 h, 5 µM ([1]; MCF-12A cells (non-tumorigenic mammary epithelial), 5 μM, 72 h) of 92.74 ± 0.01%. For the same molecule, the viability at 96 h, 5 µM ([1]; MCF-12A cells (non-tumorigenic mammary epithelial), 5 μM, 96 h) was 92.2%, the viability at 72 h, 10 µM ([1]; MCF-12A cells (non-tumorigenic mammary epithelial), 10 μM, 72 h) was 87.93 ± 0.02% and the viability at 96 h, 10 µM ([1]; MCF-12A cells (non-tumorigenic mammary epithelial), 10 μM, 96 h) was 87.93 ± 0.02%. The viability at 72 h, 20 µM ([1]; MCF-12A cells (non-tumorigenic mammary epithelial), 20 μM, 72 h) was 80.57 ± 0.01%, the viability at 96 h, 20 µM ([1]; MCF-12A cells (non-tumorigenic mammary epithelial), 20 μM, 96 h) was 80.57 ± 0.01% and the viability at 72 h, 50 µM ([1]; MCF-12A cells (non-tumorigenic mammary epithelial), 50 μM, 72 h) was 72.7 ± 0.01%. For the same molecule, the viability at 96 h, 50 µM ([1]; MCF-12A cells (non-tumorigenic mammary epithelial), 50 μM, 96 h) was 72.54 ± 0.01%, the viability at 72 h, 100 µM ([1]; MCF-12A cells (non-tumorigenic mammary epithelial), 100 μM, 72 h) was 62.63 ± 0.01% and the viability at 96 h, 100 µM ([1]; MCF-12A cells (non-tumorigenic mammary epithelial), 100 μM, 96 h) was 61.3%. It also gave a viability at 24 h, 2 µM ([1]; MCF-12A cells, 2 μM, 24 h) of 98.7%, a viability at 24 h, 5 µM ([1]; MCF-12A cells, 5 μM, 24 h) of 99.06 ± 0.01% and a viability at 48 h, 5 µM ([1]; MCF-12A cells, 5 μM, 48 h) of 93.73 ± 0.02%. It also gave a viability at 24 h, 10 µM ([1]; MCF-12A cells, 10 μM, 24 h) of 97.22 ± 0.01%, a viability at 48 h, 10 µM ([1]; MCF-12A cells, 10 μM, 48 h) of 88.48 ± 0.02% and a viability at 24 h, 20 µM ([1]; MCF-12A cells, 20 μM, 24 h) of 93.6%. The viability at 48 h, 20 µM ([1]; MCF-12A cells, 20 μM, 48 h) was 81.96 ± 0.01%, the viability at 24 h, 50 µM ([1]; MCF-12A cells, 50 μM, 24 h) was 90.25 ± 0.01% and the viability at 48 h, 50 µM ([1]; MCF-12A cells, 50 μM, 48 h) was 77.81 ± 0.01%. It also gave a viability at 24 h, 100 µM ([1]; MCF-12A cells, 100 μM, 24 h) of 82% and a viability at 48 h, 100 µM ([1]; MCF-12A cells, 100 μM, 48 h) of 67.3%.

— PMC9948168, “Vanillin-Based Indolin-2-one Derivative Bearing a Pyridyl Moiety as a Promising Anti-Breast Cancer Agent via Anti-Estrogenic Activity” (ACS Omega, 2023)
